The results in this text go back to US12083109B2, “Neurokinin antagonists and uses thereof” (California Institute of Technology, priority 2017, dated 2024).

In the experiment the target is T1, Nk3R (Mus musculus, UniProt P47937).
T1 sequence (P47937 1-452): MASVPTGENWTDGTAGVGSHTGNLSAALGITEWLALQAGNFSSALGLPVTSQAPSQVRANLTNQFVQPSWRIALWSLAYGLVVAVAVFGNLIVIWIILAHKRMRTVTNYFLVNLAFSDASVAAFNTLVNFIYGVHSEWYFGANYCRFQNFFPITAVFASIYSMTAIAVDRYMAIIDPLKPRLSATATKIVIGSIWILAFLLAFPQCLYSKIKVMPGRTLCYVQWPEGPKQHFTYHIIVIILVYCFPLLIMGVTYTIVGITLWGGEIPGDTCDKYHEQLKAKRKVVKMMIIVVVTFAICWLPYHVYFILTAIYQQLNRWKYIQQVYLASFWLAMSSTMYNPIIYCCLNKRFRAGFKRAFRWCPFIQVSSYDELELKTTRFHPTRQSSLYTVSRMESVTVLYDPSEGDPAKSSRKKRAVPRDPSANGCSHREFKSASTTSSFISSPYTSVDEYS
The experiment is described as follows: Tone fear conditioning test (freezing to conditioned tone), osanetant. Format: in vivo. Details: from tissue; host or cells: Living mice (wild-type C57Bl6/N males, Charles River). As to conditions: for SIS-induced persistent (post) freezing to fear-conditioned tone: SIS mice; for acute (and thereby persistent) freezing to conditioned threatening stimulus (tone): osanetant injection into CeA; for SIS-induced persistent freezing to conditioned tone: osanetant microinfusion into dBNSTa, 375 ng per site, 20 min before test. As to the method: The protocol for tone trace fear conditioning was performed as previously described (Cushman et al., 2014; incorporated by reference in its entirety) using fear conditioning boxes previously described in detail (Haubensak et al., 2010; Kunwar et al., 2015; incorporated by reference in their entirety). Briefly, mice were transported in squads of four on a white cart to a novel behavioral testing room containing 4 sound-attenuating fear-conditioning chambers (Med Associates). This “training context” was comprised of flat grid flooring (wired to a shock generator and scrambler for footshock delivery, Med Associates), houselights, and the presence of an internal fan for background noise. Chambers were sprayed with 70% Simple Green solution on the underlying chamber pan to generate a unique contextual scent and chambers were cleaned with 70% EtOH between squads. Trace fear conditioning consisted of a 3 minute baseline period followed by 3 tone-shock trials consisting of a 20 second tone conditional stimulus (CS; 75 dB, 2800 Hz), a 20 second trace interval and a 2 second footshock unconditional stimulus (US; 0.7 mA). The inter-trial interval (ITI) between trials was 60 seconds. Mice remained in the chambers an additional 60 seconds before being transported back to the vivarium. The following day, mice were transported in fresh cardboard boxes to a novel behavioral testing room consisting of 4 distinct fear-conditioning boxes to test for tone fear. The “test context” consisted of the houselights and fan turned off, uneven grid flooring, a 1% acetic acid scent and a black plastic insert used to generate a triangular roof. Testing was performed identical to training with the exception that shocks were omitted from test trials to allow for behavior assessment to the tone. A single shock was administered in the last minute of testing to assess activity burst responding to the shock. This allowed assessment of reactivity to the shock under our various manipulations performed during testing without disrupting fear acquisition by performing manipulations during training. All experimental manipulations and data shown herein were performed during the test phase of fear conditioning (training data not shown). Training and testing context were counterbalanced across mice. Freezing behavior during the baseline period as well as during each tone presentation (“during”) and trace interval (“post”) were assessed as previously described (Zelikowsky et al., 2014; incorporated by reference in its entirety) using automated near-infrared video tracking equipment and computer software (VideoFreeze, Med Associates). Shock reactivity (motion, arbitrary units) was measured during the 2 second shock US as well as the 3 seconds immediately following.
Mice were administered the Nk3R antagonist osanetant (Axon Medchem, Axon 1533) either systemically or intra-brain region. Osanctant was dissolved in saline with 0.1% Tween 20 (vehicle). For systemic administration mice received an intraperitoneal (i.p.) injection (5 mg/kg) 20 minutes prior to behavioral testing. For microinfusions, guide cannulas were removed from mice and replaced with injector cannulas (Plastics One), which protruded 0.5 mm from the tip of the guide cannula. Injectors were attached to 5 μl Hamilton syringes with PE tubing (Plastics One) and mounted on a microinfusion pump (Harvard Apparatus) for controlled infusion of osanetant (0.3 μl vehicle with 375 ng dose per site injected over 6 minutes). For experiments using systemic administration of clozapine-N-oxide (CNO), CNO (Enzo Life Sciences-Biomol, BML-NS105-0005) was dissolved in saline (9 g/L NaCl) and injected (i.p.) at 5 mg/kg for hM4DREADD silencing or 2 mg/kg for hM3DREADD activation 20 minutes prior to behavioral testing. CNO was also administered chronically in drinking water (0.5 mg CNO/100 ml water).

Each structure is given as a SMILES string.

Take `CC(=O)N(C)C1(c2ccccc2)CCN(CCC[C@]2(c3ccc(Cl)c(Cl)c3)CCCN(C(=O)c3ccccc3)C2)CC1` [osanetant, N-(1-{3-[(3R)-1-benzoyl-3-(3,4-dichlorophenyl)piperidin-3-yl]propyl}-4-phenylpiperidin-4-yl)-N-methylacetamide]: the “acute (and thereby persistent) freezing to conditioned threatening stimulus (tone)” value is “reduced” and the “SIS-induced persistent freezing to conditioned tone” value was “selectively inhibited”. For the same compound, where the note is “osanetant 5 mg/kg i.p. 20 min before test”, the “SIS-induced persistent (post) freezing to fear-conditioned tone” value was “blocked”. For the same compound, for the setting “osanetant 5 mg/kg i.p. 20 min before test, listed as Osanetant”, the “SIS-induced persistent (post) freezing to fear-conditioned tone” value is on record as “attenuated”. For the setting “osanetant 5 mg/kg i.p. 20 min before test, between groups”, the “freezing during presentation of conditioned tone (acute)” value is recorded as “no significant differences”. Also, under “listed as Osanetant”, the “acute (and thereby persistent) freezing to conditioned threatening stimulus (tone)” value is “selectively blocked” and the “SIS-induced persistent freezing to conditioned tone” value is reported as “selectively blocked”. Moreover, the “persistent responses to conditioned tone” value (osanetant microinfusion into DMH) was “had no effect”.
